Laboratory results: US11866408B2, “N,N-dimethyltryptamine and related psychedelics and uses thereof” (Terran Biosciences Inc., priority 2021, dated 2024)

Key:
[1] = Single intravenous dose pharmacokinetics study in rats (1 mg/kg IV; plasma levels of prodrug and of DMT or 5-MeO-DMT by LC-MS/MS); conditions: for AUC(0-t) / AUC(0-inf) / clearance / MRT / Vd / half-life: male, Sprague-Dawley, rat, iv, 1 mg/kg; for clearance: CL/CL_F (mL/min/kg); for MRT: MRT (h); for Vd: Vdss (L/kg); for half-life: t1/2 (h)
[2] = Single oral dose pharmacokinetics study in rats (10 mg/kg PO; plasma levels of prodrug and of metabolite DMT or 5-MeO-DMT by LC-MS/MS); conditions: for AUC(0-t) / Cmax: male, Sprague-Dawley, rat, po, 10 mg/kg
[3] = IV 1 mg/kg, plasma, analyte = dosed compound
[4] = plasma, AUC0-t (nM.hr), IV 1 mg/kg, analyte = dosed compound
[5] = plasma, AUC0-t (ng.hr/mL), IV 1 mg/kg, analyte = dosed compound
[6] = plasma, AUCinf (nM.hr), IV 1 mg/kg, analyte = dosed compound
[7] = plasma, AUCinf (ng.hr/mL), IV 1 mg/kg, analyte = dosed compound
[8] = plasma, IV 1 mg/kg, analyte = dosed compound
[9] = PO 10 mg/kg, plasma, analyte = dosed compound
[10] = plasma, AUC0-t (nM.hr), PO 10 mg/kg, analyte = dosed compound
[11] = plasma, AUC0-t (ng.hr/mL), PO 10 mg/kg, analyte = dosed compound
[12] = plasma, C0/Cmax (nM), PO 10 mg/kg, analyte = dosed compound
[13] = plasma, C0/Cmax (ng/mL), PO 10 mg/kg, analyte = dosed compound, mean/median
[14] = IV 1 mg/kg Plasma (t= 0 to Ihr)
[15] = plasma, IV 1 mg/kg Plasma (t= 0 to Ihr)
[16] = PO 10 mg/kg Plasma (t= 0 to Ihr)

Structure (SMILES) | AUC % Back Extrapolation to C0 [1, 3] | AUC % Extrapolation to infinity [1, 3] | Clast [1, 3] | tlast [1, 3] | AUC(0-t) [1, 4] | AUC(0-t) [1, 5] | AUC(0-inf) [1, 6] | AUC(0-inf) [1, 7] | clearance [1, 8] | MRT [1, 8] | Vd [1, 8] | half-life [1, 8] | Clast [2, 9] | tlast [2, 9] | AUC(0-t) [2, 10] | AUC(0-t) [2, 11] | Cmax [2, 12] | Cmax [2, 13] | AUC % Extrapolation to infinity [2, 9] | CL/CL_F [2, 9] | other results
CCOC(=O)n1cc(CCN(C)C)c2ccccc21 [Compound 20, Ethyl 3-[2-(dimethylamino)ethyl]indole-1-carboxylate] | 17.5% | 1.073% | 3.26 ng/mL | 4.00 h | 1.07 µM·h | 279 ng·h/mL | 1.08 µM·h | 282 ng·h/mL | 67.9 mL/min/kg | 48.6 min | 3.53 L/kg | 36.8 min | 3.01 ng/mL | 1.00 h | 0.0184 µM·h | 4.78 ng·h/mL | 44.3 nM | 11.5 ng/mL |  |  | 
CN(C)CCc1c[nH]c2ccccc12 [DMT, N,N-dimethyltryptamine] | 66.4% | 0.690% | 7.12 ng/mL | 1.50 h | 1.14 µM·h | 214 ng·h/mL | 1.15 µM·h | 216 ng·h/mL | 85.8 mL/min/kg | 9.12 min | 0.774 L/kg | 8.76 min | 1.52 ng/mL | 24.0 h | 0.314 µM·h | 59.1 ng·h/mL | 69.4 nM | 13.1 ng/mL | 42.6% | 1639 mL/min/kg | AUC % Back Extrapolation to C0 [1, 14]: 67.2%; AUC % Extrapolation to infinity [1, 14]: 0.502%; Clast [1, 14]: 5.51 ng/mL; tlast [1, 14]: 1.00 h; AUC(0-t) ([1]; plasma, AUC0-t (nM.hr), IV 1 mg/kg Plasma (t= 0 to Ihr)): 1.13 µM·h; AUC(0-t) ([1]; plasma, AUC0-t (ng.hr/mL), IV 1 mg/kg Plasma (t= 0 to Ihr)): 213 ng·h/mL; AUC(0-inf) ([1]; plasma, AUCinf (nM.hr), IV 1 mg/kg Plasma (t= 0 to Ihr)): 1.14 µM·h; AUC(0-inf) ([1]; plasma, AUCinf (ng.hr/mL), IV 1 mg/kg Plasma (t= 0 to Ihr)): 214 ng·h/mL; clearance [1, 15]: 87.1 mL/min/kg; MRT [1, 15]: 7.92 min; Vd [1, 15]: 0.645 L/kg; half-life [1, 15]: 8.4 min; Clast [2, 16]: 3.18 ng/mL; tlast [2, 16]: 1.02 h; Bioavailability (%) Using AUC0-t ([2]; PO 10 mg/kg Plasma (t= 0 to Ihr) vs IV 1 mg/kg): 0.212%; AUC(0-t) ([2]; plasma, AUC0-t (nM.hr), PO 10 mg/kg Plasma (t= 0 to Ihr)): 0.0239 µM·h; AUC(0-t) ([2]; plasma, AUC0-t (ng.hr/mL), PO 10 mg/kg Plasma (t= 0 to Ihr)): 4.51 ng·h/mL; Cmax ([2]; plasma, C0/Cmax (nM), PO 10 mg/kg Plasma (t= 0 to Ihr)): 47.1 nM; Cmax ([2]; plasma, C0/Cmax (ng/mL), PO 10 mg/kg Plasma (t= 0 to Ihr)): 8.87 ng/mL
COc1ccc2c(c1)c(CCN(C)C)cn2P(=O)(OC(C)C)OC(C)C [Diisopropylphosphonate 5-MeO-DMT Prodrug, 2-(1-diisopropoxyphosphoryl-5-methoxy-indol-3-yl)-N,N-dimethyl-ethanamine] | 7.68% | 7.01% | 5.32 ng/mL | 4.00 h | 0.273 µM·h | 104 ng·h/mL | 0.295 µM·h | 113 ng·h/mL | 150 mL/min/kg | 83.4 min | 12.2 L/kg | 60.6 min | 2.84 ng/mL | 24.1 h | 0.921 µM·h | 352 ng·h/mL | 210 nM | 80.4 ng/mL | 7.77% | 450 mL/min/kg | Bioavailability (%) Using AUCinf ([2]; PO 10 mg/kg vs IV 1 mg/kg, plasma, analyte = dosed compound): 33.8%
CC(C)OP(=O)(OC(C)C)n1cc(CCN(C)C)c2ccccc21 [Diisopropylphosphonate DMT Prodrug, 2-(1-diisopropoxyphosphorylindol-3-yl)-N,N-dimethyl-ethanamine] | 36.7% | 3.21% | 5.22 ng/mL | 4.00 h | 0.862 µM·h | 304 ng·h/mL | 0.881 µM·h | 311 ng·h/mL | 70.2 mL/min/kg | 52.1 min | 4.21 L/kg | 51.9 min | 28.2 ng/mL | 7.00 h | 1.83 µM·h | 644 ng·h/mL | 554 nM | 195 ng/mL |  |  | Bioavailability (%) Using AUC0-t ([2]; PO 10 mg/kg Plasma [Tlast = 4 h] vs IV 1 mg/kg): 16.1%; tlast ([2]; PO 10 mg/kg Plasma [Tlast = 4 h], analyte = dosed prodrug): 4.00 h; AUC(0-t) ([2]; plasma, AUC0-t (nM.hr), PO 10 mg/kg Plasma [Tlast = 4 h], analyte = dosed prodrug): 1.39 µM·h; AUC(0-t) ([2]; plasma, AUC0-t (ng.hr/mL), PO 10 mg/kg Plasma [Tlast = 4 h], analyte = dosed prodrug): 489 ng·h/mL; Cmax ([2]; plasma, C0/Cmax (nM), PO 10 mg/kg Plasma [Tlast = 4 h], analyte = dosed prodrug): 554 nM; Cmax ([2]; plasma, C0/Cmax (ng/mL), PO 10 mg/kg Plasma [Tlast = 4 h], analyte = dosed prodrug): 195 ng/mL
